{"source": "paper PMC7346179", "about": "“Fe Porphyrin-Based SOD Mimic and Redox-Active Compound, (OH)FeTnHex-2-PyP^4+, in a Rodent Ischemic Stroke (MCAO) Model: Efficacy and Pharmacokinetics as Compared to Its Mn Analogue, (H2O)MnTnHex-2-PyP^5+” (Antioxidants, 2020)", "key": {"[1]": {"assay": "3-day PK study in healthy mice", "assay_type": "in vivo", "settings": "for liver level: 6 h after last injection", "method": "Samples were prepared as described in [10] with modifications to accommodate the small tissue sizes and enhance the detection sensitivity. Quantitative liquid chromatography electrospray-ionization tandem mass spectrometry (LCMS/MS) analysis was performed on a Shimadzu 20A series HPLC (LC)—Applied Biosystems/MDS Sciex API 3200 QTrap or API 4000 QTrap tandem-mass spectrometer (MS/MS) as described earlier. The use of heptafluorobutyric acid (HFBA) mobile phase modifier as an ion-pairing agent increases the overall lipophilicity and volatility, which increases the retention and ionization efficiency of the analytes, affording an abundance of HFBA-associated ions. […] Since oxygen atoms are buried within the porphyrin cavity and thus not easily solvated, these compounds maintain similar redox properties and lipophilicity as their parent hexyl analogs, which makes them co-elute from the HPLC column and thus can be used as internal standards. (OH)FeTnBuOE-2-PyP^4+ was prepared as described for other Fe(III) N-alkylpyridylporphyrins and analogous (H2O)MnTnBuOE-2-PyP^5+ [13, 16]. The solvents employed were: A = 95:5 H2O:MeCN (0.1% HFBA); B = MeCN (0.1% HFBA). […] With the chosen solvent system, all four atropoisomers collapsed into a single peak, enhancing the sensitivity of the method to as low as 0.5 nM (nanomoles per L of tissue homogenate). Analyses were performed using a Phenomenex Luna C18 guard cartridge (ID × L, 2 × 4 mm) only. […] Their structures are also shown. Calibration samples in the 1–300 nM or 0.1–30 μM range (depending on the expected levels of MP) were prepared by adding known amounts of serially diluted pure standards into the plasma or homogenates of related tissues. The response was calculated as the ratio between the standard peak area and the internal standard peak area.\nThe study was designed to follow the dosing regime in a 3-day mouse MCAO efficacy study. […] Three mice were used per compound in each study. Mice were sacrificed 6 h after the last injection at day 3 and blood and tissues (liver and brain) collected. Blood was centrifuged at 2500 rpm for 10 min and plasma was harvested. Plasma and tissues were analyzed on porphyrin content by LCMS/MS."}, "rat MCAO stroke model": {"tested_on": "rat MCAO stroke model", "assay": "7-day rat MCAO efficacy study", "assay_type": "in vivo, rats", "settings": "0.225 mg/kg twice per day 7 days", "method": "The 7-day rat MCAO study was done as described in [9]. The 250–275 g Wistar rats were used as another species is a requirement for preclinical stroke research. The duration of the right MCAO was 90 min. […] The first dose was given IV slowly via the […] at 5 min after ischemia/reperfusion. The following doses were given SC. At day 7 post-injury, a person blinded to the treatment groups assessed the neurological deficit and then brains were harvested for infarct volume measurements."}, "[2]": {"assay": "7-day PK study in healthy rats", "assay_type": "in vivo", "method": "Samples were prepared as described in [10] with modifications to accommodate the small tissue sizes and enhance the detection sensitivity. Quantitative liquid chromatography electrospray-ionization tandem mass spectrometry (LCMS/MS) analysis was performed on a Shimadzu 20A series HPLC (LC)-Applied Biosystems/MDS Sciex API 3200 QTrap or API 4000 QTrap tandem-mass spectrometer (MS/MS) as described earlier. The use of heptafluorobutyric acid (HFBA) mobile phase modifier as an ion-pairing agent increases the overall lipophilicity and volatility, which increases the retention and ionization efficiency of the analytes, affording an abundance of HFBA-associated ions. […] (OH)FeTnBuOE-2-PyP^4+ was prepared as described for other Fe(III) N-alkylpyridylporphyrins and analogous (H2O)MnTnBuOE-2-PyP^5+ [13, 16]. The solvents employed were: A = 95:5 H2O:MeCN (0.1% HFBA); B = MeCN (0.1% HFBA). […] With the chosen solvent system, all four atropoisomers collapsed into a single peak, enhancing the sensitivity of the method to as low as 0.5 nM (nanomoles per L of tissue homogenate). Analyses were performed using a Phenomenex Luna C18 guard cartridge (ID × L, 2 × 4 mm) only. […] Their structures are also shown. […] The response was calculated as the ratio between the standard peak area and the internal standard peak area. We conducted a 7-day rat PK study under conditions identical to those that afforded the therapeutic efficacy of MnTnHex-2-PyP^5+ in an earlier study. […] Afterwards, blood/plasma samples were collected before injection and at 2 h after 24 h-injections (every second injection). Liver and brains were taken for analysis 12 h after the last injection. Three rats were used per compound. After the single (first) SC injection, we obtained a prototypical PK profile observed in the case of all Mn(III) ortho […] In contrast, although similarly absorbed after SC injection, the […] Our understanding is that the “elimination” process is actually a fast distribution/retention into/by the liver, kidney, and spleen, a multi-compartmental process responsible for early decay of the plasma concentration, observed for all Mn porphyrin analogs investigated."}, "[3]": {"settings": "SC and IV 0.5 mg/kg twice daily 3 days"}, "[4]": {"settings": "healthy rats, SC 0.225 mg/kg BID 7 days, 12 h after last injection"}, "[5]": {"settings": "healthy rats, SC 0.225 mg/kg BID 7 days, WinNonlin simulation"}}, "note": "Where “and” joins values, the source holds several entries; their conditions need not be identical. Equal values may be shown once.", "data": [{"substance": "monohydroxo Fe(III) meso-tetrakis(N-n-hexylpyridinium-2yl)porphyrin [FeHex]", "values": [{"measurement": "liver level", "setting": "[1]; IV 0.5 mg/kg twice daily 3 days", "result": 290, "unit": "nM"}, {"measurement": "liver level", "setting": "[1]; SC 0.5 mg/kg twice daily 3 days", "result": 126, "unit": "nM"}, {"measurement": "liver levels relative to MnHex", "setting": "[1]; [3]", "result": "much lower levels"}, {"measurement": "plasma levels relative to MnHex", "setting": "[1]; [3]", "result": "Higher levels"}, {"measurement": "p, cortex infarct volume vs vehicle", "setting": "rat MCAO stroke model", "result": 0.48}, {"measurement": "p, neuroscore vs vehicle", "setting": "rat MCAO stroke model", "result": 0.28}, {"measurement": "p, subcortex infarct volume vs vehicle", "setting": "rat MCAO stroke model", "result": 0.11}, {"measurement": "p, total infarct volume vs vehicle", "setting": "rat MCAO stroke model", "result": 0.31}, {"measurement": "neurological deficit (neuroscore and infarct volume)", "setting": "rat MCAO stroke model; first dose IV, then SC", "result": "only slightly, but insignificantly, improved"}, {"measurement": "plasma exposure (AUC) relative to MnHex", "setting": "[2]; 7-day twice-daily treatment of rats", "result": "more than 2 fold"}, {"measurement": "brain concentration at end of 7-day treatment", "setting": "[2]; [4]", "result": 24, "unit": "nM"}, {"measurement": "end-of-treatment 7-day liver tissue level", "setting": "[2]; [4]", "result": 0.04, "unit": "µM"}, {"measurement": "average plasma concentration (Caver)", "setting": "[2]; [5]", "result": 160, "unit": "nM"}, {"measurement": "plasma AUC", "setting": "[2]; [5]", "result": 26.9, "unit": "µM·h"}, {"measurement": "Cmax", "setting": "[2]; healthy rats, SC 0.225 mg/kg BID 7 days, WinNonlin simulation, read-out: Cmax at steady state, plasma", "result": 210, "unit": "nM"}, {"measurement": "elimination from plasma after single (first) SC injection", "setting": "[2]; healthy rats, SC 0.225 mg/kg, first 12 h", "result": "much slower elimination from the plasma"}, {"measurement": "plasma half-life", "setting": "[2]; healthy rats, SC 0.225 mg/kg, estimated from simulation, 0.225 mg/kg", "result": "23 h and ~ 23 h"}]}]}
